Laboratory results reported in PMC4483659, “Amino Acid-Derived Metabolites from the Ascidian Aplidium sp” (Marine Drugs, 2015).
Values after ≈ are worked out from the molar mass of the structure shown. Read-outs that look alike come from different tables or passages of the source.

What was measured:
[1] = system: Micrococcus luteus (IFO 12708); experiment: Antibacterial assay, M. luteus; assay type: cell-based
Description: (§1) The cytotoxicity assays were performed in accordance with the literature protocols. The Na^+/K^+-ATPase, isocitrate lyase, and sortase A inhibition assays were performed according to previously described methods. The antimicrobial assays were performed according to the method described previously.

[2] = system: A549 lung cancer cell-line; experiment: Cytotoxicity, A549 lung cancer cell-line; assay type: cell-based; details: Homo sapiens
Description: as §1

[3] = system: Escherichia coli (ATCC 35270); experiment: Antibacterial assay, E. coli; assay type: cell-based
Description: as §1

sortase A = sortase A (Staphylococcus aureus, UniProt Q2FV99); experiment: Sortase A inhibition assay; assay type: biochemical
Description: as §1

[4] = system: MRC5 human lung fibroblast cell-line; experiment: Cytotoxicity, MRC5 normal cell-line; assay type: cell-based
Description: as §1

[5] = system: Bacillus subtilis (ATCC 6633); experiment: Antibacterial assay, B. subtilis; assay type: cell-based
Description: as §1

[6] = system: Proteus vulgaris (ATCC 3851); experiment: Antibacterial assay, P. vulgaris; assay type: cell-based
Description: as §1

[7] = system: Salmonella typhimurium (ATCC 14028); experiment: Antibacterial assay, S. typhimurium; assay type: cell-based; details: Salmonella enterica, read-out: MIC, D: Salmonella typhimurium
Description: as §1

K562 leukemia cell-line = experiment: Cytotoxicity, K562 leukemia cell-line; assay type: cell-based; details: Homo sapiens
Description: as §1

Na^+/K^+-ATPase = experiment: Na+/K+-ATPase inhibition assay; assay type: biochemical; details: enzyme inhibition
Description: as §1

[8] = system: Staphylococcus aureus (ATCC 6538p); experiment: Antibacterial assay, S. aureus; assay type: cell-based; details: ATCC6538P, read-out: MIC, A: Staphylococcus aureus
Description: as §1

[9] = IFO12708, Gram(+), IFO 12708, read-out: MIC, C: Micrococcus luteus
[10] = A549 lung cancer cell-line cytotoxicity, read-out: IC50, A549
[11] = ATCC35270, Gram(−), ATCC 35270, read-out: MIC, F: Escherichia coli
[12] = MRC5 human lung fibroblast (normal) cell-line cytotoxicity, read-out: IC50, MRC5
[13] = ATCC6633, Gram(+), ATCC 6633, read-out: MIC, B: Bacillus subtilis
[14] = ATCC3851, Gram(−), ATCC 3851, read-out: MIC, E: Proteus vulgaris
[15] = K562 leukemia cell-line cytotoxicity, read-out: IC50, K562

Sequence of sortase A (Q2FV99 whole entry): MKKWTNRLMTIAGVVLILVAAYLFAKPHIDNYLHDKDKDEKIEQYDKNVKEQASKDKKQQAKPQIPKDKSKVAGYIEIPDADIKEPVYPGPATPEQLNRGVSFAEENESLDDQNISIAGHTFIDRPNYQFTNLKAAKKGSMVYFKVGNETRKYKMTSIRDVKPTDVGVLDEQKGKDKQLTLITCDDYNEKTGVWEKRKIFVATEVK

SMILES	MIC [1, 9]	IC50 [2, 10]	MIC [3, 11]	IC50 (sortase A)	IC50 [4, 12]	MIC [5, 13]	MIC [6, 14]	MIC ([7]; Gram(−), ATCC 14028)	IC50 (K562 leukemia cell-line; [15])	IC50 (Na^+/K^+-ATPase)	MIC ([8]; Gram(+), ATCC 6538p)	further results
COc1ccc(CCNC(=O)[C@H](Cc2cc(I)c(OC)c(I)c2)N(C)C)cc1I [Compound 3, apliamide C]	> 100 mg/L	13.4 µM	> 100 mg/L	> 300 µM	> 100 µM	> 100 mg/L	> 100 mg/L	> 100 mg/L	10.4 µM	> 200 µM	> 100 mg/L	
CC1(C)S[C@@H]2[C@H](NC(=O)[C@H](N)c3ccccc3)C(=O)N2[C@H]1C(=O)O [Ampicillin, reference compound]	0.4 mg/L (≈ 1.14 µM)		6.3 mg/L (≈ 18 µM)			0.4 mg/L (≈ 1.14 µM)	0.8 mg/L (≈ 2.29 µM)	0.4 mg/L (≈ 1.14 µM)			0.4 mg/L (≈ 1.14 µM)	
COc1cccc2c1C(=O)c1c(O)c3c(c(O)c1C2=O)C[C@@](O)(C(=O)CO)C[C@@H]3O[C@H]1C[C@H](N)[C@H](O)[C@H](C)O1 [Doxorubicin, reference compound]		1.4 µM			9.8 µM				1.2 µM			
COc1c(I)cc(C[C@@H](C(=O)NCCc2ccccc2)N(C)C)cc1I [Compound 2, apliamide B]	> 100 mg/L	10.8 µM	> 100 mg/L	> 300 µM	73.7 µM	> 100 mg/L	> 100 mg/L	> 100 mg/L	21.1 µM	> 200 µM	> 100 mg/L	
COc1c(I)cc(CCN(C)C)cc1I [Compound 6, apliamine A]				> 300 µM						189 µM		MIC ([1]; IFO12708, read-out: MIC, C: Micrococcus luteus): > 100 mg/L; IC50 ([2]; A549, read-out: IC50, A549): 8.3 µM; MIC ([3]; ATCC35270, read-out: MIC, F: Escherichia coli): > 100 mg/L; IC50 ([4]; Homo sapiens, MRC5, read-out: IC50, MRC5): > 100 µM; MIC ([5]; ATCC6633, read-out: MIC, B: Bacillus subtilis): > 100 mg/L; MIC ([6]; ATCC3851, read-out: MIC, E: Proteus vulgaris): > 100 mg/L; MIC [7]: > 100 mg/L; IC50 (K562 leukemia cell-line; K562, read-out: IC50, K562): 19.7 µM; MIC [8]: > 100 mg/L
O=C(O)c1cc[c]([Hg][OH])cc1 [pHMB, para-Hydroxymercuribenzoic acid, reference compound]												IC50 (sortase A; sortase A inhibition, read-out: IC50, Srt A): 109 µM
CN(C)[C@@H](Cc1c[nH]c2cc(Br)ccc12)C(=O)NCCc1ccccc1 [Compound 5, apliamide E]	> 100 mg/L	22.8 µM	> 100 mg/L	> 300 µM	37 µM	> 100 mg/L	> 100 mg/L	> 100 mg/L	7.8 µM	> 200 µM	> 100 mg/L	
COc1c(I)cc(/C=C/C(=O)NCCc2ccccc2)cc1I [Compound 4, apliamide D]	> 100 mg/L	> 100 µM	> 100 mg/L	> 300 µM	> 100 µM	> 100 mg/L	> 100 mg/L	> 100 mg/L	18.2 µM	3.2 µM	> 100 mg/L	
CN[C@@H](Cc1cc(I)c(OC)c(I)c1)C(=O)NCCc1ccccc1 [Compound 1, apliamide A]	> 100 mg/L	> 100 µM	> 100 mg/L	> 300 µM	59.2 µM	> 100 mg/L	> 100 mg/L	> 100 mg/L	14.3 µM	163 µM	> 100 mg/L	
